Laboratory results: patent US5891917A, “Certain acrylonitrile-sulfonamide derivatives” (Sugen, Inc., priority 1997, dated 1999)
pIC50: −log10 of the molar value.

biological target: T1, EGFR (Homo sapiens, UniProt P00533); assay: EGFR Whole Cell Kinase Assay (ELISA); type: cell-based; conditions: EGFR/C7 (NIH3T3) cells, 25 nM EGF
T1 construct: expressed in transfected cells; host or cells: NIH3T3 clone C7 (EGFR/C7, Honegger et al.)
Description: The following examples illustrate the ability of the exemplary compounds to inhibit receptor tyrosine kinases, such as HER2 and/or EGFR. The following target cells were used for cellular kinase assays: NIH3T3 clone C7 (Honegger et al., supra) engineered to over-express human EGF receptor; NIH3T3 cells engineered to over-express a chimeric receptor containing the EGFR extracellular domain and the HER2 intracellular kinase domain; the human mammary carcinoma line BT474 (ATCC HTB2) expressing HER2; and the human glioblastoma line U1242 that expresses PDGFR-beta. Growth assays were carried out using human mammary epithelial SKBR3 (ATCC HTB30) cells (SKBR3 cells over-express HER2), SKOV3 (ATCC HTB77) human ovarian cancer cell line (SKOV3 cells also over-express HER2), A431 cells (A431 cells over-express EGFR) MCF7 human breast carcinoma cells, MCF7 cells overexpressing the HER2 kinase (MCF7-HER2), NIH3T3 cells, and NIH3T3 cells overexpressing the HER2 kinase (3T3-HER2.
EGFR Whole Cell Kinase Assay
EGFR kinase activity (EGFR-3T3 assay) in whole cells was measured as described below:
A. Coat ELISA plates (Corning, 96 well, Cat. #25805-96) with 05-101 antibody at 0.5 μg per well in PBS, 150 μl final volume/well, and store overnight at 4° C. Coated plates are good for up to 10 days when stored at 4° C.
B. On day of use, remove coating buffer and replace with blocking buffer (5% Carnation Instant NonFat Dry Milk in PBS). Incubate the plate, shaking, at room temperature (about 23° C. to 25° C.) for 30 minutes. Just prior to use, remove blocking buffer and wash plate 4 times with TBST buffer.
A. EGFR/C7 cell line (Honegger, et al., supra) can be used for this assay.
B. Choose dishes having 80-90% confluence for the experiment. Trypsinize cells and stop reaction by adding 10% CS DMEM medium. Suspend cells in DMEM medium (10% CS DMEM medium) and centrifuge once at 1000 rpm, and once at room temperature for 5 minutes.
C. Resuspend cells in seeding medium (DMEM, 0.5% bovine serum), and count the cells using trypan blue. Viability above 90% is acceptable. Seed cells in DMEM medium (0.5% bovine serum) at a density of 10,000 cells per well, 100 μl per well, in a 96 well microtiter plate. Incubate seeded cells in 5% CO2 at 37° C. for about 40 hours.
A. Check seeded cells for contamination using an inverted microscope. Dilute drug stock (10 mg/ml in DMSO) 1:10 in DMEM medium, then transfer 5 μl to a test well for a final drug dilution of 1:200 and a final DMSO concentration of […]. Control wells receive DMSO alone. Incubate in 5% CO2 at 37° C. for one hour.
B. Prepare EGF ligand: dilute stock EGF in DMEM so that upon transfer of 10 μl dilute EGF (1:12 dilution), 25 nM final concentration is attained.
D. After two hours incubation with drug, add prepared EGF ligand to cells, 10 μl per well, to yield a final concentration of 25 nM. Control wells receive DMEM alone. Incubate, shaking, at room temperature, for 5 minutes.
E. Remove drug, EGF, and DMEM. Wash cells twice with PBS. Transfer HNTG* to cells, 100 μl per well. Place on ice for 5 minutes. Meanwhile, remove blocking buffer from other ELISA plate and wash with TBST as described above.
F. With a pipette tip securely fitted to a micropipettor, scrape cells from plate and homogenize cell material by repeatedly aspirating and dispensing the HNTG* lysis buffer. Transfer lysate to a coated, blocked, and washed ELISA plate. Incubate shaking at room temperature for one hour.
G. Remove lysate and wash 4 times with TBST. Transfer freshly diluted anti-Ptyr antibody to ELISA plate at 100 μl per well. Incubate shaking at room temperature for 30 minutes in the presence of the anti-Ptyr antiserum (1:3000 dilution in TBST).
H. Remove the anti-Ptyr antibody and wash 4 times with TBST. Transfer the freshly diluted TAGO 30 anti-rabbit IgG antibody (anti-rabbit IgG antibody: 1:3000 dilution in TBST) to the ELISA plate at 100 μl per well. Incubate shaking at room temperature for 30 minutes. […]

T1 sequence (P00533 25-1210): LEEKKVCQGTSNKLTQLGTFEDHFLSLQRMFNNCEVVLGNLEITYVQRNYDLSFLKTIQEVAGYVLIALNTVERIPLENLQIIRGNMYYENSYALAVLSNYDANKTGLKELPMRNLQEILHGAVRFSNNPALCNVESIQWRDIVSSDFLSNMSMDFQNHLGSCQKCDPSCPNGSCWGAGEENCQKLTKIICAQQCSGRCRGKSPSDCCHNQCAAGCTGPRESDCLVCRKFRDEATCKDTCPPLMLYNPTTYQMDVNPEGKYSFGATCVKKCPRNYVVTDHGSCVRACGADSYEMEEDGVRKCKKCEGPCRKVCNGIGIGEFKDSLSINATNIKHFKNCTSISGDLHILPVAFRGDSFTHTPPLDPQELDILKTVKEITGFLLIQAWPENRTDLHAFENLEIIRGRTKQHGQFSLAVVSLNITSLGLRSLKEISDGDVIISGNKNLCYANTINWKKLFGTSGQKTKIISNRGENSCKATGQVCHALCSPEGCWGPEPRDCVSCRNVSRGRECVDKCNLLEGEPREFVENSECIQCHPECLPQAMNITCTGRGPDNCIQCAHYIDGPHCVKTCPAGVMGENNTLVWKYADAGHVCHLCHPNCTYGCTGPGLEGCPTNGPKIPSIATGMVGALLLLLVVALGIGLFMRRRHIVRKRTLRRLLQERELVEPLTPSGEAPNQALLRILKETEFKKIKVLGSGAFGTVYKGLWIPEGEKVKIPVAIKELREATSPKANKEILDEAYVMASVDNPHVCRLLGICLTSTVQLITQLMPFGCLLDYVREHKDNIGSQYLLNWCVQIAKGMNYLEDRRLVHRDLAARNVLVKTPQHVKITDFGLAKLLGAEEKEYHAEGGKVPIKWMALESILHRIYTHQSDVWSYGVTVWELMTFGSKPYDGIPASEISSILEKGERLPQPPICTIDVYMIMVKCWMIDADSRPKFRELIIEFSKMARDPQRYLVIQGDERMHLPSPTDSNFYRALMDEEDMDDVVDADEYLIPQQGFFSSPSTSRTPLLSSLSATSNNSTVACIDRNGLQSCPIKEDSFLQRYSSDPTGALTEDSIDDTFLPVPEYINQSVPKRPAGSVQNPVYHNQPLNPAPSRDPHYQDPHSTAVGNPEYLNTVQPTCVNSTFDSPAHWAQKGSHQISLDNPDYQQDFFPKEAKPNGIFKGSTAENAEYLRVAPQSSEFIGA

pIC50	SMILES
< 4.00	CC(C)(C)c1cc(/C=C(\C#N)S(=O)(=O)c2ccsc2)cc(C(C)(C)C)c1O [Compound 746]
> 4.00	CC(C)c1cc(/C=C(\C#N)S(=O)(=O)/C(C#N)=C/c2cc(C(C)C)c(O)c(C(C)C)c2)cc(C(C)C)c1O [Compound 745]
< 4.00	CC(C)(C)c1cc(/C=C(\C#N)S(=O)(=O)c2cccs2)cc(C(C)(C)C)c1O [Compound 742]
4.10	CC(C)c1cc(/C=C(\C#N)S(=O)(=O)c2ccsc2)cc(C(C)C)c1O [Compound 738]
4.24	CC(C)c1cc(/C=C(\C#N)S(=O)(=O)NCc2ccccc2)cc(C(C)C)c1O [Compound 732]
< 4.00	N#C/C(=C\c1ccc(O)cc1Cl)S(=O)(=O)NCCCc1ccccc1 [Compound 734]
< 4.00	N#C/C(=C\c1ccc(O)cc1Cl)S(=O)(=O)NCc1ccccc1 [Compound 733]
4.00	CC(C)c1cc(/C=C(\C#N)S(=O)(=O)Cc2cccc(C(F)(F)F)c2)cc(C(C)C)c1O [Compound 736]
< 4.00	N#C/C(=C\c1ccc(O)c(O)c1)S(=O)(=O)c1cccs1 [Compound 743, (E)-3-(3,4-Dihydroxyphenyl)-2-[(thien-2-yl)sulfonyl]acrylonitrile]
4.28	CC(C)c1cc(/C=C(\C#N)S(=O)(=O)c2ccc(F)cc2)cc(C(C)C)c1O [Compound 741, (E)-3-(3,5-Diisopropyl-4-hydroxyphenyl)-2-(4-fluorophenylsulfonyl)acrylonitrile]
4.14	CC(C)c1cc(/C=C(\C#N)S(=O)(=O)c2ccccc2)cc(C(C)C)c1O [Compound 731]
< 4.00	Cc1cc(/C=C(\C#N)S(=O)(=O)c2ccc(F)cc2)cc(C)c1O [Compound 744]
< 4.00	Cc1cc(/C=C(\C#N)S(=O)(=O)Cc2cccc(C(F)(F)F)c2)cc(C)c1O [Compound 739]
4.11	CC(C)c1cc(/C=C(\C#N)S(=O)(=O)c2cccs2)cc(C(C)C)c1O [Compound 737]
< 4.00	CC(C)(C)c1cc(/C=C(\C#N)S(=O)(=O)c2ccc(F)cc2)cc(C(C)(C)C)c1O [Compound 740]
